We go through five compounds from PMC11625344, “A peptide derived from the amino terminus of leptin improves glucose metabolism and energy homeostasis in myotubes and db/db mice” (The Journal of Biological Chemistry, 2024).

Where no end group is shown, it is not given here.

Series [1] concerns L6 cells. Particulars: peptide up to 100 μM, 2 h; MTT, absorbance 540 nm. As to the method:
Biological activity and toxicity of the purified peptides were studied on rat skeletal muscle cell line L6. L6 cell line was seeded, grown, and differentiated according to the protocols described earlier ([34]). In brief, cells were grown in low glucose-DMEM and differentiated using DMEM containing 2% fetal bovine serum supplemented 1% Antibiotic-Antimycotic ([38], [39]).

Series [2] relates to BALB/c mice. The series is described as follows: In vivo acute toxicity and survival study. Details: species or system mouse. As for the experimental part:
In vivo toxicity and survival study with the peptides were performed in BALB/c mice. Mice were divided into five groups, each group with five number of mice. One group was kept as control group and injected only with vehicle (Water). […] Dosing was done through intraperitoneal route and only a single dosing was performed. The mice were kept under observation for a week after peptide injection. After 1 week of observation, survival of mice in all groups was recorded. At seventh day, blood samples were collected from each mice in all the groups, and the serum was isolated to estimate aspartate transaminase and alanine transaminase level ([43]).

Series [3] deals with L6 myotubes. Description: Glucose uptake assay with 2NBDG. Format: cell-based, rat. As to the method:
As described earlier ([34]), glucose uptake assay was performed in L6 myotubes using 2NBDG. Briefly describing, L6 cells were seeded and differentiated to myotubes as described above. Differentiated myotubes were serum fasted for 6 h with serum free DMEM and the cells were incubated with desired concentration of leptin-1 and leptin-2 peptides for specified period. […] Following peptide treatment, the cells were incubated with 200 μM of 2NBDG for 10 min and the residual 2NBDG was removed and washed with PBS. Cells were trypsinized and collected in fluorescence activated cell sorting tube for fluorescence measurement. To estimate the uptake of fluorescent glucose analog, fluorescence of the cells from different samples was measured using fluorescence activated cell sorting Aria instrument.

Series [4] has as its system AKT. The series is described as follows: AKT activation (p-AKT), Western blot. Format: cell-based, rat. The note with it: leptin-1 5 μM 3 h; insulin 100 nM 30 min; vs vehicle; normalised to total AKT. The source says: (§1) In order to examine the peptide-induced activation of a protein, related to a signaling event, we have assessed its expression in the peptide-treated L6 myotubes with respect to the myotubes, not treated with the peptide and myotubes-treated with a positive control. For this purpose, we have performed Western blotting experiments by usual procedure after resolving the proteins of the whole cell lysates of L6 myotubes, treated at different experimental conditions by SDS-PAGE. Briefly describing the procedure, whole cell lysate was prepared by lysing the cells in radioimmunoprecipitation assay lysis buffer and equal amount of lysate was resolved on 10% SDS-PAGE. Resolved proteins were transferred to nitrocellulose membrane and the membrane was blocked with 5% skimmed milk solution. Incubated with specific primary (ratio of 1: 2500 of antibody to phosphate-buffered saline with Tween 20 (PBST) used for antibodies purchased from Sigma-Aldrich and Millipore, 1:1000 for antibodies purchased from Santa Cruz) and secondary antibodies (antibody concentration of 1:2000 in PBST), and the blots were developed using ChemiDoc ([34]).
(In general: A western blot detects proteins with antibodies after separation by electrophoresis.)

Series [5] deals with GLUT4. The series is described as follows: GLUT4 translocation to plasma membrane, immunocytochemistry. Particulars: leptin-1 5 μM 3 h; insulin 100 nM 20 min; confocal imaging. Format: cell-based, rat. As for the experimental part:
ICC analysis for GLUT4 translocation to PM was studied in L6 myotubes. L6 cells were grown and differentiated in 4-chambered slide following the protocol described above. The differentiated cells were treated with test peptide and positive control insulin for specified time period. Cells were fixed in formalin and perforated using 0.4% Triton X-100. The cells were then immunostained using anti-GLUT4 primary antibody (1:100 dilution) and incubated overnight at 4 °C. Cells were washed three times with PBST and then incubated with Alexa flour-488 tagged secondary antibody and incubated for 2 h. After 2 h, cells were again washed 5 times with PBST, and nuclear staining was performed by incubating the cells for 30 min with Hoechst nuclear stain. The cells were then again washed 3 times and the slide was mounted using DPX mounting media. Imaging of the slides was done using confocal microscope, blue range and green ranges filters were used ([34]).

Series [6] relates to GLUT4. Description: GLUT4 expression, Western blot. Format: cell-based, rat. Particulars: peptides 5 μM 3 h; insulin 100 nM 30 min; vs vehicle; beta-actin loading control.
Description: as §1

For series [7], the system named is GLUT4. Description: GLUT4 translocation to plasma membrane, Western blot of cytosolic and membrane fractions. Format: cell-based, rat. The note with it: leptin-1 5 μM 3 h; insulin 100 nM 20 min; vs vehicle-treated control. As to the method:
Separation of cytosolic and membrane fraction was performed according to the protocol mentioned earlier ([34]). In brief, the harvested cells were resuspended in membrane fractionation buffer ([40]) and kept for 1 h with regular tapping. Cellular debris were removed by centrifugation at 800g for 10 min, and the supernatant was collected in fresh micro centrifuge tube, which contains the cytosolic and crude membrane fractions. Crude membrane and cytosolic fraction were separated by centrifugation at 12000 rpm for 10 min at 4 °C. The crude membrane pellet was resuspended in radioimmunoprecipitation assay lysis buffer to elute out membrane proteins and then centrifuged at 15000 rpm for 15 min. Whole process was performed on ice. Both the samples were than resolved on 10% SDS-PAGE ([38], [40]).
In order to examine the peptide-induced activation of a protein, related to a signaling event, we have assessed its expression in the peptide-treated L6 myotubes with respect to the myotubes, not treated with the peptide and myotubes-treated with a positive control. For this purpose, we have performed Western blotting experiments by usual procedure after resolving the proteins of the whole cell lysates of L6 myotubes, treated at different experimental conditions by SDS-PAGE. […]

In series [8] the test system is IRS1. Description: IRS1 expression, Western blot. Particulars: peptides 5 μM 3 h; insulin 100 nM 30 min; vs vehicle. Format: cell-based, rat.
Description: as §1

The subject of series [9] is db/db mice. The series is described as follows: In vivo antidiabetic activity, OGTT and fasting blood glucose. Details: species or system mouse. The note with it: metformin 50 mg/kg i.p. on alternate days for 30 days, n = 5.
Description: In vivo antidiabetic activity of the peptide was studied in diabetic animal model db/db mice. Male db/db mice with hyperglycemia were identified by checking their blood glucose level and selected for the study. Mice were divided into four groups, and the number of animals in each group was five. Blood glucose levels were measured using Accu-Chek glucometer and blood glucose measurement strips. The study was continued for 30 days. At the start of the study, fasting blood glucose in each animal was recorded, and OGTT was performed in each animal of all groups. To perform OGTT, the mice were fasted for 6 h, and then 30 min before oral glucose loading, the fasting blood glucose level in each mouse was recorded. After fasting of 6 h 3 g/kg body weight glucose was loaded orally and blood glucose at 0 minute was recorded simultaneously. Blood glucose was measured after every 30 min at 30, 60, 90, and 120 min after oral glucose loading. Time of oral glucose loading was considered as 0 min. After OGTT on day-1 peptide dosing was started. […] Thus 15 doses of the peptide/drug were administered in each db/db mice over a period of 30 days. On final day, OGTT was performed again with the same procedure described above. Blood sample was collected from each group for serum analysis. Mice were sacrificed by CO2 induced hypoxia. […]
Series [10] has as its system AMPK protein. The series is described as follows: AMPK activation (Thr-172 phosphorylation), Western blot. Format: cell-based, rat. Particulars: peptides 5 μM 3 h; metformin 50 μM 6 h; normalised to total AMPK.
Description: as §1

Series [11] concerns adiponectin. Description: Serum adiponectin ELISA. Format: in vivo, mouse. The note with it: metformin 50 mg/kg, 30 days; vs diabetic db/db control group. As to the method: (§2) In vivo antidiabetic activity of the peptide was studied in diabetic animal model db/db mice. Male db/db mice with hyperglycemia were identified by checking their blood glucose level and selected for the study. Mice were divided into four groups, and the number of animals in each group was five. Blood glucose levels were measured using Accu-Chek glucometer and blood glucose measurement strips. The study was continued for 30 days. At the start of the study, fasting blood glucose in each animal was recorded, and OGTT was performed in each animal of all groups. To perform OGTT, the mice were fasted for 6 h, and then 30 min before oral glucose loading, the fasting blood glucose level in each mouse was recorded. After fasting of 6 h 3 g/kg body weight glucose was loaded orally and blood glucose at 0 minute was recorded simultaneously. Blood glucose was measured after every 30 min at 30, 60, 90, and 120 min after oral glucose loading. Time of oral glucose loading was considered as 0 min. After OGTT on day-1 peptide dosing was started. Dosing of M10 peptide at 10 mg/kg and 20 mg/kg body weight was started from day one on alternate day basis through intraperitoneal route for 30 days. Thus 15 doses of the peptide/drug were administered in each db/db mice over a period of 30 days. On final day, OGTT was performed again with the same procedure described above. […]
For orientation: ELISA stands for enzyme-linked immunosorbent assay.

Series [12] concerns acetyl-CoA carboxylase-2 (ACC2). Description: ACC2 serine-80 phosphorylation, Western blot. Format: cell-based, rat.
Description: as §1

Series [13] deals with IL-6. The series is described as follows: Serum IL-6 ELISA. Format: in vivo, mouse. Particulars: metformin-treated db/db group (50 mg/kg), 30 days. As to the method: as §2
The subject of series [14] is TNFα. The series is described as follows: Serum TNFα ELISA. Format: in vivo, mouse. The note with it: metformin-treated db/db group (50 mg/kg), 30 days. As for the experimental part:
as §2

The subject of series [15] is L6 myotubes. Description: ATP extraction and determination. Format: cell-based, rat. The note with it: 24 h; rosiglitazone 10 μM; vehicle-treated control 4 μM; ATP determination kit. As to the method:
Whole amount of ATP was extracted from L6-myotubes treated with leptin-1 and leptin-2 peptides and Rosiglitazone, according to the protocol mentioned in the literature ([42]). Briefly, the cells were harvested and pelleted by centrifugation. The harvested cells were incubated with 1% trichloroacetic acid and 4 mM EDTA solution for 10 min on ice for ATP extraction. The samples were centrifuged at 12,000 rpm for 10 min to pellet down the debris, and the supernatant was used for ATP determination. ATP determination was performed according to the protocol mentioned in the ATP determination kit’s manual from Thermo Fisher Scientific. Interference of trichloroacetic acid on ATP determination was avoided by 10× dilution of the sample in water.

Series [16] concerns L6 myotubes. The series is described as follows: Mitochondrial biogenesis assay using MitoTracker red. Particulars: 24 h incubation; rosiglitazone 10 μM; confocal microscopy, ImageJ. Format: cell-based, rat. As to the method:
Mitochondrial biogenesis was studied in L6 cells using mitochondrial stain MitoTracker CMXRos. The cells L6 was seeded in 4-chambered slide with a density of 20,000 cells per chamber. The cells were differentiated to myotubes following the protocol mentioned above. […] Following treatment with test peptides the cells were stained with MitoTracker red and Hoechst. The cells were then washed with PBS to remove the residual stains. Cells were then fixed with 4% paraformaldehyde and the slides were mounted using DPX. The slides were then imaged using confocal microscope. The excitation and emission wavelengths were fixed at 578 and 599 nm for red and 357 and […] for blue emission, respectively ([41]).

Setting [17] is: 10, 20, 40 and 80 mg/kg, day 7, comparable to vehicle-treated control.

Take KQKVTGLDFIPGLHPIL-NH2 [leptin-1]: the “viability of L6 cells” value in [1] is on record as ~95%. In series [2] (10, 20, 40 and 80 mg/kg body weight, intraperitoneal, 7 days), this compound had a survival of 100%. Further, in series [2] (setting [17]), the “serum alanine transaminase level” value was “normal” and the “serum aspartate transaminase level” value was “normal”. For the same compound, in series [2] (all peptide-treated groups, until end of 7 days), the body weight entry was “stable body weights”.

For the compound “insulin: human insulin (Sigma-Aldrich), positive control at 100 nM”, the “glucose uptake, positive control” value in series [3] (insulin 100 nM, Fig. 2D) is on record as “significantly increased glucose uptake”. Also, in [3] (leptin-1 5 μM 3 h, insulin 100 nM 30 min, Fig. 5C), the “glucose uptake without inhibitor” value is reported as 2.4 fold. The “AKT activation (p-AKT)” value in series [4] is on record as 4.2 fold. For the same compound, the “GLUT4 translocation to PM (ICC, green fluorescence on PM)” value in series [5] was “appreciable increase in green fluorescence”. The compound also gave a GLUT4 expression in series [6] of 1.6 fold. Moreover, the “GLUT4 translocation to PM” value in [7] is recorded as 4 fold. Moreover, the “IRS1 activation and expression” value in series [8] is recorded as 1.6 fold.

For the compound VVALSRLQGSLQDMLW-NH2 [leptin-2], the “viability of L6 cells” value in series [1] is given as ~95%.

As for `CN(C)C(=N)N=C(N)N` [metformin], in series [9], the “fasting blood glucose (FBG)” value is “reduced FBG”. Moreover, in [9] (oral glucose 3 g/kg), the “glucose tolerance (OGTT)” value is “improved glucose tolerance”. In addition, the “AMPK Thr-172 phosphorylation” value in series [10] is 2 fold. Moreover, in [11], the “increase in serum adiponectin production” value was 2.6 fold. Further, the “phosphorylation of S80 of ACC2 after dorsomorphin pretreatment” value in [12] (dorsomorphin 1 h, then leptin-1 5 μM 3 h or metformin) is reported as “prevented”. Besides, the “phosphorylation of S80 residue of ACC2” value in series [12] (peptides 5 μM 3 h, metformin positive control) is on record as “significantly increased S80 residue phosphorylation”. The “inhibition of IL-6 production” value in series [13] was 52%. Also, the “inhibition of TNFα production” value in series [14] was determined as 44%.

In [15], `CN(CCOc1ccc(CC2SC(=O)NC2=O)cc1)c1ccccn1` (centres unmarked) [rosiglitazone] yielded an ATP production of 13 µM. In [16], the “mitochondrial biogenesis (Mitotracker red fluorescence)” value is “significantly increased mitochondrial biogenesis”.
